Assay results from article PMC12042115 (mLife, 2025).
Read-outs that look alike come from different tables or passages of the source.

Test system: wild‐type BCG cells
Format: cell-based, M. bovis BCG
Conditions: for Mean_Ratio (GDI5755_3d vs DMSO_3d): down-regulated, 3 d; for Mean Ratio: GDI5755_2d vs DMSO_2d; for Mean Ratio / Mean Ratio (GDI5755_2d vs DMSO_2d): up-regulated; for Mean Ratio (GDI5755_2d vs DMSO_2d): 2d

O=C(Oc1ccc(Cl)cc1)c1ccc(N2CCOCC2)c([N+](=O)[O-])c1 [GDI‐5755]
Mean_Ratio (GDI5755_3d vs DMSO_3d) (protein A0A0H3M2P5, BCG_0207 (Rv0170), MCE-family protein mce1B): 0.7 | Mean Ratio (protein A0A0H3M2Q0 Probable conserved mce associated membrane protein): 1.29 | Mean Ratio (protein A0A0H3M2Q5 Probable conserved transmembrane protein): 1.31 | Mean Ratio (GDI5755_2d vs DMSO_2d) (protein A0A0H3M2T8 Possible conserved membrane protein mmpS5): 1.38 | Mean Ratio (protein A0A0H3M3A7 3-hydroxyacyl-CoA dehydrogenase): 1.27 | Mean_Ratio (GDI5755_3d vs DMSO_3d) (protein A0A0H3M3B6, BCG_1227 (Rv1165), Large ribosomal subunit assembly factor BipA): 0.749 | Mean_Ratio (GDI5755_3d vs DMSO_3d) (protein A0A0H3M3D2, BCG_0932 (Rv0880), Possible transcriptional regulatory protein (Possibly marR-family)): 0.738 | Mean_Ratio (GDI5755_3d vs DMSO_3d) (protein A0A0H3M3H3, BCG_1314 (Rv1254), Probable acyltransferase): 0.748 | Mean Ratio (protein A0A0H3M3I2 Uncharacterized protein): 1.28 | Mean Ratio (protein A0A0H3M3J3 Probable periplasmic oligopeptide-binding lipoprotein oppA): 1.27 | Mean Ratio (GDI5755_2d vs DMSO_2d) (protein A0A0H3M3L0 Conserved hypothetical transmembrane protein): 1.38 | Mean Ratio (protein A0A0H3M3S8 Lipoarabinomannan carrier protein LprG): 1.31 | Mean Ratio (protein A0A0H3M3T4 Possible conserved membrane protein): 1.31 | Mean Ratio (protein A0A0H3M3X9 Probable cation transporter P-type atpase D ctpD): 1.31 | Mean_Ratio (GDI5755_3d vs DMSO_3d) (protein A0A0H3M4A0, BCG_1633 (Rv1595), L-aspartate oxidase): 0.7 | Mean Ratio (GDI5755_2d vs DMSO_2d) (protein A0A0H3M4G0 Lipoprotein lprB): 1.35 | Mean_Ratio (GDI5755_3d vs DMSO_3d) (protein A0A0H3M4I9, BCG_1379c (Rv1318c), Possible adenylate cyclase): 0.7 | Mean_Ratio (GDI5755_3d vs DMSO_3d) (protein A0A0H3M4L2, BCG_1760c (Rv1721c), Antitoxin VapB12): 0.7 | Mean Ratio (protein A0A0H3M4W6 DUF1490 family protein): 1.26 | Mean_Ratio (GDI5755_3d vs DMSO_3d) (protein A0A0H3M5A9, BCG_1670c (Rv1632c), DUF402 domain-containing protein): 0.74 | Mean Ratio (GDI5755_2d vs DMSO_2d) (protein A0A0H3M5C0 RNA polymerase sigma factor): 1.33 | Mean_Ratio (GDI5755_3d vs DMSO_3d) (protein A0A0H3M5G5, BCG_1251, alternative RNA polymerase sigma factor sigI): 0.7 | Mean Ratio (protein A0A0H3M5I2 Uncharacterized protein): 1.28 | Mean Ratio (protein A0A0H3M5J1 Probable serine protease htrA): 1.26 | Mean Ratio (GDI5755_2d vs DMSO_2d) (protein A0A0H3M5K5 DUF4129 domain-containing protein): 1.38 | Mean_Ratio (GDI5755_3d vs DMSO_3d) (protein A0A0H3M5K7, BCG_1305c (Rv1245c), Probable short-chain type dehydrogenase/reductase): 0.7 | Mean Ratio (GDI5755_2d vs DMSO_2d) (protein A0A0H3M5K8 Methylenetetrahydrofolate reductase): 1.33 | Mean_Ratio (GDI5755_3d vs DMSO_3d) (protein A0A0H3M5L3, BCG_1311c (Rv1251c), Uncharacterized protein): 0.76 | Mean Ratio (protein A0A0H3M5L8 1-acylglycerol-3-phosphate O-acyltransferase): 1.26 | Mean Ratio (GDI5755_2d vs DMSO_2d) (protein A0A0H3M5V5 Possible flavoprotein): 1.33 | Mean Ratio (GDI5755_2d vs DMSO_2d) (protein A0A0H3M5V7 Possible transmembrane protein): 1.32 | Mean Ratio (protein A0A0H3M5V9 DUF3145 domain-containing protein): 1.32 | Mean Ratio (GDI5755_2d vs DMSO_2d) (protein A0A0H3M6F8 Probable 'component linked with the assembly of cytochrome' transport transmembrane ATP-binding protein ABC transporter cydC): 1.33 | Mean_Ratio (GDI5755_3d vs DMSO_3d) (protein A0A0H3M6P3, BCG_1740c (Rv1702c), HNH nuclease domain-containing protein): 0.759 | Mean Ratio (protein A0A0H3M6T8 Uncharacterized protein): 1.25 | Mean Ratio (GDI5755_2d vs DMSO_2d) (protein A0A0H3M7A1 Probable conserved membrane protein): 1.33 | Mean Ratio (protein A0A0H3M7A2 (2E)-enoyl-[ACP] glycyltransferase): 1.27 | Mean Ratio (protein A0A0H3M7D2 Quinone oxidoreductase): 1.25 | Mean_Ratio (GDI5755_3d vs DMSO_3d) (protein A0A0H3M7E6, BCG_0206 (Rv0169), MCE-family protein mce1A): 0.7 | Mean_Ratio (GDI5755_3d vs DMSO_3d) (protein A0A0H3M7F0, BCG_0211 (Rv0174), MCE-family protein mce1F): 0.7 | Mean Ratio (GDI5755_2d vs DMSO_2d) (protein A0A0H3M7F7 Hemerythrin-like domain-containing protein): 1.39 | Mean Ratio (protein A0A0H3M7J3 UspA domain-containing protein): 1.27 | Mean Ratio (protein A0A0H3M7L3 Succinate dehydrogenase [membrane anchor subunit]): 1.25 | Mean Ratio (protein A0A0H3M7L4 Possible transmembrane protein dedA): 1.29 | Mean Ratio (protein A0A0H3M7L9 Probable arsenic-transport integral membrane protein arsC): 1.30 | Mean Ratio (protein A0A0H3M7M0 Posible transcriptional regulatory protein): 1.27 | Mean_Ratio (GDI5755_3d vs DMSO_3d) (protein A0A0H3M7M6, BCG_2876 (Rv2856), Nickel/cobalt efflux system): 0.7 | Mean Ratio (protein A0A0H3M7N4 Possible secreted protease): 1.32 | Mean_Ratio (GDI5755_3d vs DMSO_3d) (protein A0A0H3M7R0, BCG_0355, Possible beta-1,3-glucanase): 0.7 | Mean Ratio (protein A0A0H3M7R4 Probable membrane protein): 1.30 | Mean_Ratio (GDI5755_3d vs DMSO_3d) (protein A0A0H3M7T2, BCG_2131, Uncharacterized protein): 0.742 | Mean_Ratio (GDI5755_3d vs DMSO_3d) (protein A0A0H3M7W0, BCG_2977 (Rv2956), Methyltransferase FkbM domain-containing protein): 0.7 | Mean Ratio (protein A0A0H3M7X0 Probable conserved transmembrane protein): 1.28 | Mean Ratio (protein A0A0H3M7X3 Probable conserved transmembrane protein): 1.32 | Mean_Ratio (GDI5755_3d vs DMSO_3d) (protein A0A0H3M7Y1, BCG_0442 (Rv0404), Probable fatty-acid-CoA ligase fadD30): 0.7 | Mean_Ratio (GDI5755_3d vs DMSO_3d) (protein A0A0H3M7Y6, BCG_2210 (Rv2194), Cytochrome bc1 complex cytochrome c subunit, qcrC): 0.747 | Mean Ratio (protein A0A0H3M8J5 Protein translocase subunit SecE): 1.31 | Mean Ratio (GDI5755_2d vs DMSO_2d) (protein A0A0H3M8K7 DUF4333 domain-containing protein): 1.33 | Mean Ratio (protein A0A0H3M8L8 Probable FeIII-dicitrate-binding periplasmic lipoprotein fecB): 1.27 | Mean Ratio (protein A0A0H3M8M0 Conserved hypothetical threonine rich protein): 1.26 | Mean Ratio (protein A0A0H3M8Q9 Probable short-chain type dehydrogenase/reductase): 1.27 | Mean_Ratio (GDI5755_3d vs DMSO_3d) (protein A0A0H3M8T3, BCG_3410 (Rv3340), Probable O-acetylhomoserine sulfhydrylase metC): 0.7 | Mean Ratio (protein A0A0H3M8V5 Possible transcriptional regulatory protein (Probably tetR-family)): 1.29 | Mean_Ratio (GDI5755_3d vs DMSO_3d) (protein A0A0H3M8X7, BCG_3431 (Rv3359), Possible oxidoreductase): 0.737 | Mean Ratio (GDI5755_2d vs DMSO_2d) (protein A0A0H3M8X9 Probable oxidase): 1.33 | Mean_Ratio (GDI5755_3d vs DMSO_3d) (protein A0A0H3M8Y4, BCG_3436c (Rv3364c), Roadblock/LAMTOR2 domain-containing protein/Serine protease inhibitor): 0.75
